According to BindingDB's records for doi:10.1002/cbic.200800712 (University of Basel, 2009):
pIC50: −log10 of the molar value. Several values for one entry are separate records, joined by “and”; a condition that tells them apart may be missing. Equal values may be shown once.

Assays:
Cytochrome P450 2A6 = molecular target: T1, Cytochrome P450 2A6 (Homo sapiens, UniProt P11509); experiment: Inhibition Assay; settings: pH 7.6; 37 °C
T1 sequence (P11509 whole entry): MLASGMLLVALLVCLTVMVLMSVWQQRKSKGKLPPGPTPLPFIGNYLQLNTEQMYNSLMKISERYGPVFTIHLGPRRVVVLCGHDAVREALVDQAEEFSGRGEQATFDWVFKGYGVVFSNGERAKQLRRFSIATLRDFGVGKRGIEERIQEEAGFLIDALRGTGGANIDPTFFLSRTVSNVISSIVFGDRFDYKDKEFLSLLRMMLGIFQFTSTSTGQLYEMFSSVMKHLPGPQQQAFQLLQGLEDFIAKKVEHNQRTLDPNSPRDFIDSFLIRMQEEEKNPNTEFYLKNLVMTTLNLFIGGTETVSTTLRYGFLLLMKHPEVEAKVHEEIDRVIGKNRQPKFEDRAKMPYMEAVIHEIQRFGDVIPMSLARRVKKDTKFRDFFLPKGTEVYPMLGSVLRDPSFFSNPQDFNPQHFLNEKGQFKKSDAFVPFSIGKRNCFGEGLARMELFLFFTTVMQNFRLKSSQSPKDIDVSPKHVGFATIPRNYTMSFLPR
Excerpt: (§1) Inhibition assay using cytochrome P450 enzyme CYP2A6 and CYP2A13.

Cytochrome P450 2A13 = molecular target: T2, Cytochrome P450 2A13 (Homo sapiens, UniProt Q16696); experiment: Inhibition Assay; settings: pH 7.6; 37 °C
T2 sequence (Q16696 whole entry): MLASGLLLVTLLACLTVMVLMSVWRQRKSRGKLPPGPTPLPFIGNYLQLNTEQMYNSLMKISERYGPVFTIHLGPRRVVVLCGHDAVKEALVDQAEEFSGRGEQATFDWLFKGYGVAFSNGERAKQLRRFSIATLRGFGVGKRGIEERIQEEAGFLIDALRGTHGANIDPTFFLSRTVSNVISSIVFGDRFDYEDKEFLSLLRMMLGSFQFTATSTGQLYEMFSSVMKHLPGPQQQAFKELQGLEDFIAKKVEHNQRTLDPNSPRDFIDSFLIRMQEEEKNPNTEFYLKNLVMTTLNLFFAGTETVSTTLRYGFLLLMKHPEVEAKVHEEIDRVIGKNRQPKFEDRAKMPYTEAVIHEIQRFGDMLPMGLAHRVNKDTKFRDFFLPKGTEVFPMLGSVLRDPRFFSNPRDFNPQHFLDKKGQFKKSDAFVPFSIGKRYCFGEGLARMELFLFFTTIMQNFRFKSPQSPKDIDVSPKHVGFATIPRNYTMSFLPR
Excerpt: as §1

| pIC50 (Cytochrome P450 2A6) | pIC50 (Cytochrome P450 2A13) | Compound |
| --- | --- | --- |
| < 3.52 | 3.91 | CCOC(=O)CCCn1ccnc1 [1-Subsituted 1H-imidazole, 18] |
| < 3.52 | 3.84 | CC/C=C/Cc1ncc[nH]1 [2-Subsituted 1H-imidazole, 28] |
| < 3.52 | 3.62 | CCOC(=O)CCn1ccnc1 [1-Subsituted 1H-imidazole, 17] |
| < 3.52 | < 3.52 | OCCCCn1ccnc1 [1-Subsituted 1H-imidazole, 19] |
| 5.15 and 4.94 | 5.26 | CC/C=C/CCn1ccnc1 [1-Subsituted 1H-imidazole, 12] |
| < 3.52 | 3.56 | CCCCCCCCCc1ncc[nH]1 [2-Subsituted 1H-imidazole, 27] |
| < 3.52 | < 3.52 | CCCCCCCCCc1ncco1 [2-Subsituted oxazole, 30] |
| 4.19 | 3.63 | CC#CCn1ccnc1 [1-Subsituted 1H-imidazole, 15] |
| 5.11 |  | CC(C)=CCn1ccnc1 [1-Subsituted 1H-imidazole, 9] |
| < 3.52 | 3.61 | CC(C)=CCCC(C)Cc1ncc[nH]1 (centres undefined) [2-Subsituted 1H-imidazole, 26] |
| 3.52 | 4.31 | COc1ccc(-c2ncco2)cc1 [2-Subsituted oxazole, 29] |
| 4.96 | 5.51 | CCCCCCCn1ccnc1 [1-Subsituted 1H-imidazole, 5] |
| < 3.52 | < 3.52 | C=Cn1ccnc1 [1-ethenyl-1H-imidazole] |
| < 3.52 | < 3.52 | COc1ccc(C2=NCCO2)cc1 [2-Subsituted oxazoline, 31] |
| 5.68 | 5.37 | CCCCCn1ccnc1 [1-Subsituted 1H-imidazole, 3] |
| 3.91 | < 3.52 | OCCCCCn1ccnc1 [1-Subsituted 1H-imidazole, 20] |
| 4.27 | 3.83 | c1cn(CC2CC2)cn1 |
| 5.24 | 5.24 | CC(C)=CCC/C(C)=C\Cn1ccnc1 [1-Subsituted 1H-imidazole, 14] |
| 4.65 | 4.72 | N#CCCCCn1ccnc1 [1-Subsituted 1H-imidazole, 22] |
| 5.07 | 4.36 | CCCCn1ccnc1 [1-Subsituted 1H-imidazole, 2] |
| 5.85 | 5.62 | C=CCCCCn1ccnc1 [1-Subsituted 1H-imidazole, 13] |
| 5.51 |  | CC(C)CCn1ccnc1 [1-Subsituted 1H-imidazole, 7] |
| 3.75 | 4.09 | O=C(O)CCCCn1ccnc1 |
| < 3.52 | < 3.52 | CCCn1ccnc1 [1-Subsituted 1H-imidazole, 1] |
| 5.17 | 4.94 | CC/C=C/Cn1ccnc1 [1-Subsituted 1H-imidazole, 10] |
| 5.57 |  | CCCCCCn1ccnc1 [1-Subsituted 1H-imidazole, 4] |
